“Also recorded” adds a separate entry of the source.
Experiments:
VCaP cells = assay: Basement membrane matrix invasion assay, VCaP cells; format: cell-based, human; conditions: P<0.01 for DNA-PKcs siRNA or NU7026>10 μM; P<0.05 for all PARP1 siRNA, NU1025 or Olaparib treatments
Protocol: (§1) For invasion assays, the prostate cell lines RWPE-1 and VCaP were transfected with siRNA or negative controls as indicated. NU7026 (Sigma) and NU1025 (Calbiochem) were dissolved in DMSO and stored at −20° C. in the dark. Forty-eight hours post-transfection/transduction, cells were seeded onto the basement membrane matrix (EC matrix, Chemicon, Temecula, Calif.) in the chamber insert with […] pores of a 24-well culture plate in serum free media. Cells were attracted to the lower chamber by the addition of complete media as a chemoattractant. After 48 hours incubation at 37° C. with 5% CO2, the non-invading cells and EC matrix were gently removed with a cotton swab. Invasive cells, which were located on the lower side of the membrane, were stained with crystal violet, air dried and photographed. To quantify the relative number of invaded cells, colorimetric assays were performed by treating the inserts with 150 μl of 10% acetic acid (v/v) and measuring absorbance of each condition at 560 nm using a spectrophotometer (GE Healthcare).

[1] = tested on: RWPE cells stably overexpressing ETV1; assay: Basement membrane matrix invasion assay, RWPE-ETV1 cells; format: cell-based, human; conditions: P<0.01 for all PARP1 or DNA-PKcs treatments
Protocol: as §1

VCaP xenografts = assay: VCaP mouse xenograft model; format: in vivo, mice
Description: Olaparib was obtained from Axon Medchem (Groningen, The Netherlands).

PC3 cells = assay: Colony formation after radiation, isogenic PC3 model overexpressing T2:ERG; format: cell-based; conditions: PC3, pre-treated with 10 μM Olaparib
Protocol: (§2) The effect of ETS overexpression on radioresistance was assayed. Isogenic PC3 or DU145 models overexpressing either T2:ERG or ERG with a deleted ETS domain were pre-treated with or without 10 μM Olaparib and then treated with different doses of radiation as indicated. Colony formation was assessed. Experiments were also performed in which cells were pre-treated with either PARP1 or control siRNA prior to radiation. Western blot analysis was used to assess PARP knockdown efficiency in the inset. Total Poly(ADP-ribose) (or PAR) levels were assessed by Western blot analysis from total cell lysates. All experiments were run in triplicate. Error bars are standard error of the mean.

DU145 cells = assay: Colony formation after radiation, isogenic DU145 model overexpressing T2:ERG; format: cell-based; conditions: DU145, pre-treated with 10 μM Olaparib
Protocol: as §2

O=C(c1cc(Cc2n[nH]c(=O)c3ccccc23)ccc1F)N1CCN(C(=O)C2CC2)CC1 [Olaparib, 4-[3-(4-Cyclopropanecarbonylpiperazine-1-carbonyl)-4-fluorobenzyl]-2H-phthalazin-1-one]
VCaP cell invasion (VCaP cells): significant reduction; also recorded: blocks VCaP cell invasion
ETV1-mediated invasion [1]: does now effect invasion
dose dependence of VCaP tumor growth response (VCaP xenografts; Olaparib): dose dependent
tumor growth relative to the vehicle control (VCaP xenografts; VCaP, Olaparib 40 mg/kg/day IP (P=0.001), NU7026 25 mg/kg/day IP (p=0.004)): significant reduction of tumor growth
ERG induced radiation resistance (colony formation) (PC3 cells): blocks ERG induced radiation resistance; also recorded: reversed by PARP inhibition
ERG induced radiation resistance (colony formation) (DU145 cells): blocks ERG induced radiation resistance; also recorded: reversed by PARP inhibition

Reference: patent US20120035244A1, “PARP1 TARGETED THERAPY” (THE REGENTS OF THE UNIVERSITY OF MICHIGAN, priority 2010, published 2012)
